Reference: PMC8606745 (Frontiers in Microbiology, 2021)
Where two headings read alike, the source gives them in different places. Square brackets hold non-standard residues; d marks the D form. Peptide text beside a SMILES is read from it. * marks the point of attachment. Butyryl = CCCC(=O)*

What was measured:
[1] = tested on: X. fastidiosa subsp. fastidiosa IVIA 5387.2
Gram-negative bacteria [2] = tested on: Gram-negative bacteria; parameters: key: Xf: Xylella fastidiosa; Ec: Escherichia coli; Pa: Pseudomonas aeruginosa; Ab: Acinetobacter baumannii; Kp: Klebsiella pneumoniae; Bc: Burkholderia cenocepacia; Se: Salmonella enterica subsp. enterica; Sp: Salmonella pullorum; –: low or no activity; conditions: cited from earlier work
[3] = tested on: X. fastidiosa subsp. fastidiosa IVIA 5387.2; assay type: cell-based, Xylella fastidiosa
Gram-negative bacteria [4] = tested on: Gram-negative bacteria; parameters: key: Xf: Xylella fastidiosa; Ec: Escherichia coli; Pa: Pseudomonas aeruginosa; Ab: Acinetobacter baumannii; Kp: Klebsiella pneumoniae; Bc: Burkholderia cenocepacia; Se: Salmonella enterica subsp. enterica; Sp: Salmonella pullorum; –: low or no activity; conditions: cited from earlier work; remark: listed apart in the source

Row | Molecule | Bactericidal activity: Reduction in viability (Log N0/N) ([1]; 50 µM) | Hemolysis (horse erythrocytes; 150 µM) [%] | Hemolysis (horse erythrocytes; 250 µM) [%] | Hemolysis (horse erythrocytes; 375 µM) [%] | Described activity: Antibacterial (Gram-negative bacteria [2]) | Biofilm formation Level (antibiofilm activity) ([3]; 50 µM) | Biofilm formation Ratio (treatment/NTC) ([3]; 50 µM) | Planktonic cells Ratio (treatment/NTC) ([3]; 50 µM) | Described activity: Antibiofilm (Gram-negative bacteria [4]) | Bactericidal activity: Reduction in viability (Log N0/N) [1] [Log N0/N] | further results
1 | CC[C@H](C)[C@H](NC(=O)[C@H](CCCNC(=N)N)NC(=O)[C@@H](NC(=O)[C@H](C)NC(=O)[C@@H](NC(=O)[C@@H](NC(=O)[C@H](CC(C)C)NC(=O)[C@H](CCCNC(=N)N)NC(=O)[C@@H](N)C(C)C)[C@@H](C)CC)C(C)C)C(C)C)C(=O)N[C@@H](Cc1c[nH]c2ccccc12)C(=O)N[C@@H](CCCNC(=N)N)C(=O)N[C@@H](CCCNC(=N)N)C(N)=O [IDR-1018] (H-VRLIVAVRIWRR-NH2; N-terminus and C-terminus assumed) | 1.80 ± 0.01 | 35.6 ± 4.4 | 43.0 ± 0.2 | 45.9 ± 4.9 | Kp, Ec | High (key: High: high antibiofilm activity (ratio of biofilm formation from 0.01 to 0.2); Moderate: moderate activity (ratio from 0.29 to 0.47); Low: low activity (ratio from 0.72 to 0.77)) | 0.06 ± 0.01 | 1.72 ± 0.07 | Pa, Ec, Ab, Kp, Se, Bc | – | –
2 | CC[C@H](C)[C@H](N)C(=O)N[C@@H](CC(C)C)C(=O)N1CCC[C@H]1C(=O)N[C@@H](Cc1c[nH]c2ccccc12)C(=O)N[C@@H](CCCCN)C(=O)N[C@@H](Cc1c[nH]c2ccccc12)C(=O)N1CCC[C@H]1C(=O)N[C@@H](Cc1c[nH]c2ccccc12)C(=O)N[C@@H](Cc1c[nH]c2ccccc12)C(=O)N1CCC[C@H]1C(=O)N[C@@H](Cc1c[nH]c2ccccc12)C(=O)N[C@@H](CCCNC(=N)N)C(=O)N[C@@H](CCCNC(=N)N)C(N)=O [Indolicidin] | – | 95.1 ± 5.0 | 100.0 ± 4.4 | 100.0 ± 2.5 | Xf | – | – | – | – | 2.46 ± 0.11 | log reduction of cell viability ([1]; 3 h, 50 μM): 2-3 log; Biofilm formation Level (antibiofilm activity) [3]: High (key: High: high antibiofilm activity (ratio of biofilm formation from 0.01 to 0.2); Moderate: moderate activity (ratio from 0.29 to 0.47); Low: low activity (ratio from 0.72 to 0.77)); Biofilm formation Ratio (treatment/NTC) [3]: 0.09 ± 0.01; Planktonic cells Ratio (treatment/NTC) [3]: 0.46 ± 0.07
3 | CC[C@H](C)[C@H](NC(=O)CN)C(=O)N[C@@H](CC(C)C)C(=O)NCC(=O)N[C@@H](CCCCN)C(=O)N[C@@H](CC(C)C)C(=O)N[C@@H](Cc1c[nH]c2ccccc12)C(=O)N[C@@H](CCC(=O)O)C(=O)NCC(=O)N[C@H](C(=O)N[C@@H](CCCCN)C(=O)N[C@@H](CO)C(=O)N[C@H](C(=O)N[C@@H](Cc1ccccc1)C(N)=O)[C@@H](C)CC)C(C)C [HP1404] (H-GILGKLWEGVKSIF-NH2) | – | 100.0 ± 0.5 | 100.0 ± 3.9 | 100.0 ± 0.7 | Pa | – | – | – | Pa | 0.00 ± 0.12 | Biofilm formation Level (antibiofilm activity) [3]: High (key: High: high antibiofilm activity (ratio of biofilm formation from 0.01 to 0.2); Moderate: moderate activity (ratio from 0.29 to 0.47); Low: low activity (ratio from 0.72 to 0.77)); Biofilm formation Ratio (treatment/NTC) [3]: 0.15 ± 0.01; Planktonic cells Ratio (treatment/NTC) [3]: 2.75 ± 0.02
4 | CC[C@H](C)[C@H](NC(=O)[C@H](CCCNC(=N)N)NC(=O)[C@@H](N)Cc1ccccc1)C(=O)N[C@@H](CCCNC(=N)N)C(=O)N[C@H](C(=O)N[C@@H](CCCNC(=N)N)C(=O)N[C@H](C(N)=O)C(C)C)C(C)C [FV7] (H-FRIRVRV-NH2; N-terminus assumed) | 0.07 ± 0.14 | 3.7 ± 0.4 | 4.4 ± 0.3 | 9.5 ± 1.4 | Ec, Pa, Se, Sp | High (key: High: high antibiofilm activity (ratio of biofilm formation from 0.01 to 0.2); Moderate: moderate activity (ratio from 0.29 to 0.47); Low: low activity (ratio from 0.72 to 0.77)) | 0.20 ± 0.01 | 1.33 ± 0.17 | Ec, Pa | – | –
5 | HOC11H22CO-ILPFKFPFFPFRR-NH2 [BP529] | 0.62 ± 0.09 | 7.2 ± 0.3 | 12.5 ± 0.6 | 39.0 ± 1.1 | – | High (key: High: high antibiofilm activity (ratio of biofilm formation from 0.01 to 0.2); Moderate: moderate activity (ratio from 0.29 to 0.47); Low: low activity (ratio from 0.72 to 0.77)) | 0.12 ± 0.03 | 2.29 ± 0.03 | – | – | –
6 | Magainin 2 | 3.29 ± 0.11 | 35.2 ± 1.1 | 54.5 ± 3.7 | 71.1 ± 6.0 | Xf | – | – | – | – | – | Bactericidal activity: Reduction in viability (Log N0/N) ([1]; 3.1 µM): 0.49 ± 0.10 Log N0/N; log reduction ([1]; 3.1 µM): poorly active; Bactericidal activity: Reduction in viability (Log N0/N) ([1]; 12.5 μM): 2.07 ± 0.12 Log N0/N; log reduction ([1]; 12.5 μM): 2 log; Biofilm formation Level (antibiofilm activity) ([3]; 12.5 μM): Moderate (key: High: high antibiofilm activity (ratio of biofilm formation from 0.01 to 0.2); Moderate: moderate activity (ratio from 0.29 to 0.47); Low: low activity (ratio from 0.72 to 0.77)); Biofilm formation Ratio (treatment/NTC) ([3]; 28°C, 5 days): 0.47 ± 0.02; Planktonic cells Ratio (treatment/NTC) ([3]; 28°C, 5 days): 1.59 ± 0.13
7 | CCCC(=O)N[C@H](C(=O)N[C@@H](CC(C)C)C(=O)N1CCC[C@H]1C(=O)N[C@H](Cc1ccccc1)C(=O)N[C@@H](CCCCN)C(=O)N[C@H](Cc1ccccc1)C(=O)N1CCC[C@H]1C(=O)N[C@H](Cc1ccccc1)C(=O)N[C@H](Cc1ccccc1)C(=O)N1CCC[C@H]1C(=O)N[C@H](Cc1ccccc1)C(=O)N[C@@H](CCCNC(=N)N)C(=O)N[C@@H](CCCNC(=N)N)C(N)=O)[C@@H](C)CC [BP526] (Butyryl-ILP[dF]K[dF]P[dF][dF]P[dF]RR-NH2) | 0.56 ± 0.03 | 8.3 ± 0.7 | 20.4 ± 0.7 | 46.8 ± 3.3 | – | High (key: High: high antibiofilm activity (ratio of biofilm formation from 0.01 to 0.2); Moderate: moderate activity (ratio from 0.29 to 0.47); Low: low activity (ratio from 0.72 to 0.77)) | 0.17 ± 0.02 | 2.17 ± 0.02 | – | – | –
8 | KRIVKLILKWLR-NH2 [KR-12-a5] | 1.40 ± 0.07 | 79.0 ± 0.6 | 96.1 ± 1.8 | 100.0 ± 1.7 | Ec, Pa, Se | – | – | – | Pa | – | Effect on X. fastidiosa growth in the antibiofilm test ([3]; 50 µM): affected X. fastidiosa’s growth
9 | CC[C@H](C)[C@H](NC(=O)[C@H](CCCNC(=N)N)NC(=O)[C@H](CCCNC(=N)N)NC(=O)[C@H](Cc1c[nH]c2ccccc12)NC(=O)[C@H](Cc1ccccc1)NC(=O)[C@@H](N)C(C)C)C(=O)N[C@@H](CCCNC(=N)N)C(=O)N[C@H](C(=O)N[C@@H](Cc1c[nH]c2ccccc12)C(=O)N[C@H](C(=O)N[C@H](C(=O)N[C@@H](CCCNC(=N)N)C(N)=O)[C@@H](C)CC)C(C)C)C(C)C [LJK2] (H-VFWRRIRVWVIR-NH2) | – | 28.4 ± 1.9 | 43.9 ± 3.7 | 72.4 ± 8.9 | – | – | – | – | – | 0.80 ± 0.10 | Effect on X. fastidiosa growth in the antibiofilm test [3]: affected X. fastidiosa’s growth
10 | CC[C@H](C)[C@H](NC(=O)[C@H](C)NC(=O)[C@H](Cc1c[nH]cn1)NC(=O)[C@@H]1CCCN1C(=O)[C@@H](NC(=O)[C@H](CC(C)C)NC(=O)[C@H](CO)NC(=O)[C@H](Cc1ccccc1)NC(=O)[C@H](CC(C)C)NC(=O)[C@@H](N)Cc1ccccc1)[C@@H](C)CC)C(=O)NCC(=O)NCC(=O)N[C@@H](CC(C)C)C(=O)N[C@H](C(=O)N[C@@H](CO)C(=O)N[C@@H](C)C(=O)N[C@@H](Cc1ccccc1)C(=O)N[C@@H](CCCCN)C(N)=O)[C@@H](C)CC [AamAP1] | – | 100.00 ± 1.3 | 100.0 ± 4.1 | 100.0 ± 4.4 | – | – | – | – | – | 1.38 ± 0.12 | Effect on X. fastidiosa growth in the antibiofilm test [3]: affected X. fastidiosa’s growth
